Where two headings read alike, the source gives them in different places. Non-standard residues stand in square brackets, D forms with d. Residues, ends and D or L forms follow the SMILES beside them. No end group written: not given here. NMeL = CN[C@@H](CC(C)C)C(=O)O; βAla = NCCC(=O)O
Assays:
[1] = target: T1, human recombinant NK1 receptors (Homo sapiens, UniProt P25103); experiment: cell-based; assay type: cell-based
Description: (§1) CHO-hNK2 and CHO-hNK1 cells were transiently transfected with a CRE-LUC reporter construct using Lipofectamine 2000. At 24 h post-transfection, cells were plated at a density of 20,000 cells/well in a 96-well culture plate. […] Luciferase expression was measured after 5 h of incubation at 37°C (in the presence of 5% CO2) by adding Firefly Luciferase reagent, followed by Renilla Luciferase reagent. Luminescence was measured by using an Envision Multilabel flash lamp reader after addition of the first and second reagents. Data were normalized by calculating the ratio of the Firefly luminescence from the CRE reporter to the Renilla luminescence from the control Renilla Luciferase vector.

[2] = target: T2, human recombinant NK2 receptors (Homo sapiens, UniProt P21452); experiment: cell-based; conditions: for EC50: CHO-hNK2 cells
T2 sequence (P21452 1-398): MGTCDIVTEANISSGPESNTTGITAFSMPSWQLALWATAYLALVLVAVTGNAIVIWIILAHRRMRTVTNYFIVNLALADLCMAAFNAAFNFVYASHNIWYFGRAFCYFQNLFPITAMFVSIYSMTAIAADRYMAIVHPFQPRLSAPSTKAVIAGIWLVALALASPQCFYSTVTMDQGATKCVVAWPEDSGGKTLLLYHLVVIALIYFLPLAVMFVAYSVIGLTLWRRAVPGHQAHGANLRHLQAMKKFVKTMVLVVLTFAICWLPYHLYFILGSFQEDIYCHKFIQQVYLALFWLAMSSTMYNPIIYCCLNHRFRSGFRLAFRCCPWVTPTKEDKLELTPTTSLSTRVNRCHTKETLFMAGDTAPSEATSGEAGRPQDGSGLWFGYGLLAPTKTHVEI
Description: as §1

[3] = target: T1, human recombinant NK1 receptors; experiment: Displacement of [^3H]-Septide binding to CHO-hNK1 membranes (septide site)
Description: Protein expression was induced by addition of 5 mM sodium butyrate to the culture medium. […] The cell suspension was collected, placed on ice and centrifuged for 5 min at 4°C and 1200 rpm in a Beckman GS6R centrifuge. After removal of the supernatant the cell pellet was washed and collected by re-suspension in PBS and centrifugation. The final pellet was weighed and frozen at -80°C until use. Frozen pellets were thawed and homogenized in 10 volumes (w/v) of membrane preparation buffer (50 mM HEPES pH 7.4, 1 mM EDTA, 50 μg/mL bacitracin and protease inhibitors) using a Polytron Ultraturrax (twice for 15 s per cycle). The homogenate was centrifuged for 20 min at 4°C and 18500 rpm in a SL-50T Sorvall rotor and the pellet was re-suspended in membrane preparation buffer and re-homogenized as before. After centrifugation for 20 min at 4°C and 18500 rpm, the pellets were re-suspended in 5 volumes of membrane preparation buffer and divided into aliquots before freezing at -80°C. Protein concentration was determined using BioRad Protein Assay (Milan, Italy) with a BSA standard curve. Stock solutions of test compounds (10 mM) were prepared in DMSO and stored at -20°C until use. […] The goodness of fit between One-Site and Two-Site models was examined using Akaike's Information Corrected Criteria (AICC; [23]) in SAS v9.4 (SAS Institute, Cary NC) in order to select the best model for the data generated. […] Data from displacement experiments were plotted as the log [inhibitor concentration] (X axis) versus response expressed as TB in cpm (Y axis).

[4] = target: T1, human recombinant NK1 receptors; experiment: cell-based
Description: (§2) Human recombinant NK2 and NK1 receptors were generated using stably transfected CHO cells (CHO-hNK2 and CHO-hNK1, respectively). Human NK2 or NK1 receptor expressing vectors from Genecopeia (Rockville, USA) were transfected in CHO cells using the standard FuGENE protocol and cells were selected using 450 μg/mL geneticin (G418). Clones expressing the receptors were selected by functional coupling to calcium using FLIPR and a single clone for each receptor subtype was selected for expansion and stable cell line generation. Cells were cultured in a humidified incubator with 5% CO2 in F12K medium containing 10% heat inactivated FBS and 450 μg/mL geneticin and passaged on reaching 80–90% confluence.
(§3) The agonist efficacy of the test compounds at recombinant human NK1 or NK2 receptors expressed in CHO cells was assessed by measuring the intracellular calcium response using the calcium-sensitive dye Fluo-4 AM (Eugene, OR, USA) and a Fluorometric Imaging Plate Reader (FLIPR, Molecular Devices, CA, USA). CHO-hNK1 and CHO-hNK2 cells were seeded into black walled clear-bottom 384-well plates at a density of 10,000 and 15,000 cells per well in 50 μL culture media, respectively, and grown overnight at 37°C in a humidified CO2-incubator. Cells were washed in washing buffer using an EMBLA 384 plate washer, leaving 20 μL of buffer per well after the final aspiration. Cells were then incubated at 37°C with the cytoplasmic Ca^2+ indicator Fluo-4 AM (final concentration 1 μM) in assay buffer (20 mM HEPES, 145 mM NaCl, 5 mM KCl, 5.5 mM glucose, 1 mM MgCl2 and 2 mM CaCl2, pH 7.4, 0.05% Pluronic F-127 and 0.1% BSA) containing 2.5 mM probenecid for 45–60 min (cell loading). Cells were then washed 3 times in washing buffer (20 mM HEPES, 145 mM NaCl, 5 mM KCl, 5.5 mM glucose, 1 mM MgCl2 and 2 mM CaCl2, pH 7.4 and 2.5 mM probenecid) using an EMBLA 384 plate washer, leaving 30 μL of buffer in each well after the last wash. Loaded cell plates were transferred to the FLIPR and calcium responses were monitored as described below. […] Concentration response curves of test compounds were generated in duplicate on at least two different occasions from the same stock solutions. Test solutions were prepared from 10 mM stock solutions in DMSO and 1 μL of each solution was stamped into V-bottom assay plates containing 49 μL assay buffer. The final concentration of DMSO was 0.5% in each well.

[5] = target: T2, human recombinant NK2 receptors; experiment: cell-based
Description: as §2, §3

[6] = target: T2, human recombinant NK2 receptors; experiment: Displacement of [^125I]-NKA binding to CHO-hNK2 membranes
NK2 receptor = target: T3, NK2 receptor (Homo sapiens, UniProt P21452); experiment: [125I]-NKA displacement
T3 chain: T2 sequence (P21452 1-398)

NK1 receptor = target: T4, NK1 receptor (Homo sapiens, UniProt P25103); experiment: [3H]-Septide displacement
T4 chain: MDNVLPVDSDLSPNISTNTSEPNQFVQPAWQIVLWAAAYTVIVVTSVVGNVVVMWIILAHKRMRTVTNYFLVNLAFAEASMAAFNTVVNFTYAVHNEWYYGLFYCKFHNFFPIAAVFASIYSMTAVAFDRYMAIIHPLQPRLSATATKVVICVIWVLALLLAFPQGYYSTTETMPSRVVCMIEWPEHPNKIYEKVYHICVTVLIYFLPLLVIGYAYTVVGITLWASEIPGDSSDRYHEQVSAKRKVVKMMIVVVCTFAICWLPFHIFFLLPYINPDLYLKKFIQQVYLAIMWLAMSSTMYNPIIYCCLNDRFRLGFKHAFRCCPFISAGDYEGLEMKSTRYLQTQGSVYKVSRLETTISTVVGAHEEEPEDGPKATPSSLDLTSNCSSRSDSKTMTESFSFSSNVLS

[7] = CHO-hNK1 cells, % of maximal response observed with substance P, mean ± SD
[8] = mean ± SD, read-out: cAMP stimulation pEC50 (converted)
[9] = read-out: NK2 EC50 cAMP stimulation
[10] = CHO-hNK1 cells, mean ± SD, read-out: cAMP stimulation pEC50 (converted)
[11] = CHO-hNK1 cells, read-out: NK1 EC50 cAMP stimulation
[12] = 5.0 nM [^3H]-Septide, CHO-hNK1 membranes 20 μg/well, 23°C, 1 h, mean ± SD, read-out: [^3H]-Septide binding pKi (converted)
[13] = displacement of [^3H]-Septide binding, read-out: NK1 [^3H]-Septide Ki
[14] = Intracellular Ca^2+ pEC50, CHO-hNK1 cells, mean ± SD
[15] = NK1 EC50 intracellular calcium response, CHO-hNK1 cells
[16] = Intracellular Ca^2+ pEC50, CHO-hNK2 cells, mean ± SD
[17] = NK2 EC50 intracellular calcium response, CHO-hNK2 cells

CSCC[C@H](NC(=O)[C@H](CC(C)C)NC(=O)CNC(=O)[C@@H](NC(=O)[C@H](Cc1ccccc1)NC(=O)[C@H](CO)NC(=O)[C@H](CC(=O)O)NC(=O)[C@@H](NC(=O)[C@H](CCCCN)NC(=O)[C@@H](N)Cc1c[nH]cn1)[C@@H](C)O)C(C)C)C(N)=O [NKA, reference compound]
cAMP stimulation % Max [1, 7]: 100.5 ± 13.6%

CCCC[C@H](NC(=O)[C@H](CC(C)C)N(C)C(=O)CNC(=O)[C@@H](NC(=O)[C@H](Cc1ccccc1)NC(=O)[C@H](CCCCN)NC(=O)[C@@H](N)CC(=O)O)C(C)C)C(N)=O [[Lys^5,MeLeu^9,Nle^10]-NKA(4-10), Asp-Lys-Phe-Val-Gly-Leu(NMe)-Nle-NH2]
cAMP stimulation % Max [2]: 107.4 ± 7.36% | EC50 [2, 8]: 0.024 nM | EC50 [2, 9]: 0.024 nM | cAMP stimulation % Max [1]: 94.3 ± 21.6% | EC50 [1, 10]: 1.78 nM | EC50 [1, 11]: 1.78 nM | Ki [3, 12]: 589 nM | Ki [3, 13]: 589 nM | Intracellular Ca^2+ % Max [4]: 107.6 ± 3.1% | EC50 [4, 14]: 15.5 nM | EC50 [4, 15]: 15.5 nM | Intracellular Ca^2+ % Max [5]: 101.4 ± 3.0% | EC50 [5, 16]: 0.148 nM | EC50 [5, 17]: 0.15 nM | Fold more selective than NKA for activation of NK2 over NK1 receptors (calcium) ([5]; from EC50 ratios): approximately 100 fold | Ki ([6]; NK2 [^125I]-NKA Ki, displacement of [^125I]-NKA binding): 0.87 nM | Ki ([6]; [^125I]-NKA binding pKi, 0.1 nM [^125I]-NKA, CHO-hNK2 membranes 6 μg/well, 23°C, 3 h, mean ± SD): 0.871 nM | Fold more selective for NK2 over septide site of NK1 receptor compared with NKA (binding) ([6]; from Ki ratios): more than 28 fold

CSCC[C@H](NC(=O)[C@H](CC(C)C)N(C)C(=O)CNC(=O)[C@@H](NC(=O)[C@H](Cc1ccccc1)NC(=O)[C@H](CCCCN)NC(=O)[C@@H](N)CC(=O)O)C(C)C)C(N)=O [[Lys^5,MeLeu^9]-NKA(4–10), Asp-Lys-Phe-Val-Gly-(NMe-Leu)-Met-NH2]
[^3H]-Septide binding pKi ([3]; 5.0 nM [^3H]-Septide, CHO-hNK1 membranes 20 μg/well, 23°C, 1 h, mean ± SD): 7.30 ± 0.16 | [^3H]-Septide binding Slope ([3]; Hill slope of displacement curve, 5.0 nM [^3H]-Septide, 23°C, 1 h, mean ± SD): -0.89 ± 0.01 | Intracellular Ca^2+ % Max [4, 7]: 106.7 ± 5.7% | Intracellular Ca^2+ pEC50 ([4]; CHO-hNK1 cells, mean ± SD): 9.02 ± 0.39 | Intracellular Ca^2+ % Max ([5]; CHO-hNK2 cells, % of maximal response observed with NKA, mean ± SD): 88.2 ± 11.4% | EC50 [5, 16]: 0.145 nM | NK1/NK2 ratio of EC50s for intracellular calcium response ([5]; NK1 EC50 / NK2 EC50): 7 | NK1/NK2 ratio of Ki values [6]: 251 | [^125I]-NKA binding Slope [6]: -0.84 ± 0.06 | [^125I]-NKA binding pKi [6]: 9.70 ± 0.16

CSCC[C@H](NC(=O)[C@H](CC(C)C)NC(=O)CCNC(=O)[C@@H](NC(=O)[C@H](Cc1ccccc1)NC(=O)[C@H](CO)NC(=O)[C@@H](N)CC(=O)O)C(C)C)C(N)=O [[β-Ala^8]-NKA(4–10), Asp-Ser-Phe-Val-[β-Ala]-Leu-Met-NH2] (H-DSFV[βAla]LM-NH2)
cAMP stimulation % Max [2]: 84.6 ± 13.1% | EC50 [2, 8]: 0.0234 nM | EC50 [2, 9]: 0.023 nM | cAMP stimulation % Max [1]: 97.3 ± 24.8% | EC50 [1, 10]: 5.62 nM | EC50 [1, 11]: 5.62 nM | Ki [3, 12]: 2090 nM | Ki [3, 13]: 2090 nM | Intracellular Ca^2+ % Max [4]: 106.0 ± 11.5% | EC50 [4, 14]: 46.8 nM | EC50 [4, 15]: 46.8 nM | Intracellular Ca^2+ % Max [5]: 102.2 ± 7.4% | EC50 [5, 16]: 0.871 nM | EC50 [5, 17]: 0.86 nM

B1: [Arg5,MeLeu9]-NKA(4-10) (peptide)
chain: DRFVG[NMeL]M-NH2
modifications: N-terminus assumed
SMILES: CSCC[C@H](NC(=O)[C@H](CC(C)C)N(C)C(=O)CNC(=O)[C@@H](NC(=O)[C@H](Cc1ccccc1)NC(=O)[C@H](CCCNC(=N)N)NC(=O)[C@@H](N)CC(=O)O)C(C)C)C(N)=O
Ki (NK2 receptor): 0.12 nM | Ki (NK1 receptor): 20.9 nM

DRFVGLM-NH2 [[Arg5]-NKA(4-10)]
Ki (NK2 receptor): 0.31 nM | Ki (NK1 receptor): 8.3 nM

DKFVG[NMeL]M-NH2 [[Lys5,MeLeu9]-NKA(4-10)]
Ki (NK2 receptor): 0.2 nM | Ki (NK1 receptor): 50.1 nM

DSFVGLM-NH2 [NKA(4-10)]
Ki (NK2 receptor): 2.3 nM

Source: PMC6201908, “Affinity, potency, efficacy, and selectivity of neurokinin A analogs at human recombinant NK2 and NK1 receptors” (PLoS ONE, 2018)
